From PubChem BioAssay (NCI)
Where “and” joins values, the source holds several entries; their conditions need not be identical. Equal entries are not always repeated.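 Step 1: Grow cells in 96-well plates. Step 2: Expose to compound for 48 hours at 5 concentrations. Step 3: Interpolate endpoints linearly; if unreached, use highest concentration. GI50 marks 50% less growth. Definition used: TGI = concentration required for complete inhibition of growth.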

What was measured:
Assay in all cases: NCI anticancer screen, dose series, 48 h
HCT-15 colon = system: HCT-15 colon
HL-60(TB) leukemia = system: HL-60(TB) leukemia
NCI-H522 lung = system: NCI-H522 lung
MALME-3M melanoma = system: MALME-3M melanoma
SF-539 CNS = system: SF-539 CNS
NCI-H23 lung = system: NCI-H23 lung
K-562 leukemia = system: K-562 leukemia
NCI/ADR-RES ovarian = system: NCI/ADR-RES ovarian
SK-MEL-2 melanoma = system: SK-MEL-2 melanoma
UACC-257 melanoma = system: UACC-257 melanoma

SMILES | GI50 (HCT-15 colon) [µM] | TGI (HCT-15 colon) [µM] | GI50 (HL-60(TB) leukemia) [µM] | TGI (HL-60(TB) leukemia) [µM] | GI50 (NCI-H522 lung) [µM] | TGI (NCI-H522 lung) [µM] | GI50 (MALME-3M melanoma) [µM] | TGI (MALME-3M melanoma) [µM] | GI50 (SF-539 CNS) [µM] | TGI (SF-539 CNS) [µM] | GI50 (NCI-H23 lung) [µM] | TGI (NCI-H23 lung) [µM] | GI50 (K-562 leukemia) | TGI (K-562 leukemia) [µM] | GI50 (NCI/ADR-RES ovarian) [µM] | TGI (NCI/ADR-RES ovarian) [µM] | GI50 (SK-MEL-2 melanoma) [µM] | TGI (SK-MEL-2 melanoma) [µM] | GI50 (UACC-257 melanoma) [µM] | TGI (UACC-257 melanoma) [µM]
COc1ccc2[nH]c(C(=O)OCc3ccc4c(Cl)cc(Cl)c(O)c4n3)cc2c1 | 0.698 | 2.44 | 1.5 | 3.84 | 1.19 | 2.99 | 1.48 | 2.82 | 1.25 | 2.5 | 1.57 | 3.37 | 0.355 µM | 3.05 | 2.08 | 8.16 | 1.61 | 3.37 | 1.64 | 4.23
CC1(C)CCC[C@]2(C)c3ccccc3C(=O)CC12 (stereo not given in full) | 24.9 | > 100 | 40.5 | > 100 | 27.7 | 76.1 | 29 | > 100 | 27.1 | 75.7 | 39.4 | > 100 | 41.4 µM | > 100 | 20.3 | 91.1 | 22 | 61.3 | 32.5 | > 100
COC(=O)[C@H](Cc1cn(C)cn1)NC(=O)[C@H](Cc1ccccc1)NC(=O)Nc1cc(C(F)(F)F)cc(C(F)(F)F)c1 | 16.9 | 42.4 | 16.5 | 32.7 | 11.7 | 24.7 | 18.2 | 34.2 | 17.2 | 33 | 17.4 | 33 | 7.69 µM and 5.97 µM | 20.5 | 23.9 | 61.4 | 17.7 | 32.3 | 16.1 | 30.1
CC(C)c1ccc(NC(=O)Cc2ccc(Nc3ncnc4cc(-c5cnn(CCN(C)C)c5)ccc34)cc2)cc1 | 1.55 | 4.08 | 2.84 | > 10 | 1.56 | 3.94 | > 10 | > 10 | 0.571 | 2.39 | 4.14 | > 10 | 2.12 µM | 5.94 | > 10 | > 10 | > 10 | > 10 | > 10 | > 10
COc1cc2nccc(Oc3ccc(NC(=O)c4cn(C(C)C)c(=O)n(-c5ccc(F)cc5)c4=O)cc3F)c2cc1OC | > 100 | > 100 | > 100 | > 100 | > 22.5 | > 100 | 2.39 | 11.8 | 1.6 | 3.38 | > 100 | > 100 | 0.0442 µM | > 100 | > 100 | > 100 | > 68.1 | > 100 | 7.65 | > 77.5
COc1cc(NCCCCCN=C(N)NC(N)=NC(C)C)c2ncccc2c1 | 34.1 | > 100 | 0.575 | 3.46 | 1.18 | 4.58 | 0.43 | 1.91 | 2.3 | 12.8 | 0.401 | 2.3 | 0.607 µM | 19.3 | > 100 | > 100 | 1.95 | 5.36 | 1.04 | 4.81
C[N+](C)=c1ccc2nc3c(cc(NCCCNc4cc5oc6cc(=[N+](C)C)ccc-6nc5c5ccccc45)c4ccccc43)oc-2c1 | 1.9 | 6.33 | 2.56 | 9.25 | 1.5 | 4.59 | 2.05 | 4.45 | 1.73 | 3.76 | 1.61 | 5.45 | 1.57 µM | > 25.5 | 6.63 | > 100 | 15 | 45.7 | 4.34 | 16.3
